# Patent publication US9586951B2 (FUJIFILM Corporation, priority 2013, dated 2017)
# Biological target: T1, ATM (Homo sapiens, UniProt Q13315)
# T1 construct: detecting phosphorylation of Chk2 in a human non-small cell lung cancer cell line NCI-H460 (ATCC company); host or cells: NCI-H460 human non-small cell lung cancer cells
# Assay: ATM inhibition test (phosphorylation of Chk2 generated by ionizing radiation, AlphaScreen SureFire)
# Format: cell-based
# Conditions: ATM inhibitory activity, phosphorylated Chk2 in NCI-H460 cells, ionizing radiation 8Gy, 1 hour after test compound treatment
# In short: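 In NCI-H460 cells, radiation-triggered Chk2 phosphorylation (8Gy, 1 h) is detected by AlphaScreen SureFire following 1 h compound exposure.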
# T1 sequence (Q13315 whole entry): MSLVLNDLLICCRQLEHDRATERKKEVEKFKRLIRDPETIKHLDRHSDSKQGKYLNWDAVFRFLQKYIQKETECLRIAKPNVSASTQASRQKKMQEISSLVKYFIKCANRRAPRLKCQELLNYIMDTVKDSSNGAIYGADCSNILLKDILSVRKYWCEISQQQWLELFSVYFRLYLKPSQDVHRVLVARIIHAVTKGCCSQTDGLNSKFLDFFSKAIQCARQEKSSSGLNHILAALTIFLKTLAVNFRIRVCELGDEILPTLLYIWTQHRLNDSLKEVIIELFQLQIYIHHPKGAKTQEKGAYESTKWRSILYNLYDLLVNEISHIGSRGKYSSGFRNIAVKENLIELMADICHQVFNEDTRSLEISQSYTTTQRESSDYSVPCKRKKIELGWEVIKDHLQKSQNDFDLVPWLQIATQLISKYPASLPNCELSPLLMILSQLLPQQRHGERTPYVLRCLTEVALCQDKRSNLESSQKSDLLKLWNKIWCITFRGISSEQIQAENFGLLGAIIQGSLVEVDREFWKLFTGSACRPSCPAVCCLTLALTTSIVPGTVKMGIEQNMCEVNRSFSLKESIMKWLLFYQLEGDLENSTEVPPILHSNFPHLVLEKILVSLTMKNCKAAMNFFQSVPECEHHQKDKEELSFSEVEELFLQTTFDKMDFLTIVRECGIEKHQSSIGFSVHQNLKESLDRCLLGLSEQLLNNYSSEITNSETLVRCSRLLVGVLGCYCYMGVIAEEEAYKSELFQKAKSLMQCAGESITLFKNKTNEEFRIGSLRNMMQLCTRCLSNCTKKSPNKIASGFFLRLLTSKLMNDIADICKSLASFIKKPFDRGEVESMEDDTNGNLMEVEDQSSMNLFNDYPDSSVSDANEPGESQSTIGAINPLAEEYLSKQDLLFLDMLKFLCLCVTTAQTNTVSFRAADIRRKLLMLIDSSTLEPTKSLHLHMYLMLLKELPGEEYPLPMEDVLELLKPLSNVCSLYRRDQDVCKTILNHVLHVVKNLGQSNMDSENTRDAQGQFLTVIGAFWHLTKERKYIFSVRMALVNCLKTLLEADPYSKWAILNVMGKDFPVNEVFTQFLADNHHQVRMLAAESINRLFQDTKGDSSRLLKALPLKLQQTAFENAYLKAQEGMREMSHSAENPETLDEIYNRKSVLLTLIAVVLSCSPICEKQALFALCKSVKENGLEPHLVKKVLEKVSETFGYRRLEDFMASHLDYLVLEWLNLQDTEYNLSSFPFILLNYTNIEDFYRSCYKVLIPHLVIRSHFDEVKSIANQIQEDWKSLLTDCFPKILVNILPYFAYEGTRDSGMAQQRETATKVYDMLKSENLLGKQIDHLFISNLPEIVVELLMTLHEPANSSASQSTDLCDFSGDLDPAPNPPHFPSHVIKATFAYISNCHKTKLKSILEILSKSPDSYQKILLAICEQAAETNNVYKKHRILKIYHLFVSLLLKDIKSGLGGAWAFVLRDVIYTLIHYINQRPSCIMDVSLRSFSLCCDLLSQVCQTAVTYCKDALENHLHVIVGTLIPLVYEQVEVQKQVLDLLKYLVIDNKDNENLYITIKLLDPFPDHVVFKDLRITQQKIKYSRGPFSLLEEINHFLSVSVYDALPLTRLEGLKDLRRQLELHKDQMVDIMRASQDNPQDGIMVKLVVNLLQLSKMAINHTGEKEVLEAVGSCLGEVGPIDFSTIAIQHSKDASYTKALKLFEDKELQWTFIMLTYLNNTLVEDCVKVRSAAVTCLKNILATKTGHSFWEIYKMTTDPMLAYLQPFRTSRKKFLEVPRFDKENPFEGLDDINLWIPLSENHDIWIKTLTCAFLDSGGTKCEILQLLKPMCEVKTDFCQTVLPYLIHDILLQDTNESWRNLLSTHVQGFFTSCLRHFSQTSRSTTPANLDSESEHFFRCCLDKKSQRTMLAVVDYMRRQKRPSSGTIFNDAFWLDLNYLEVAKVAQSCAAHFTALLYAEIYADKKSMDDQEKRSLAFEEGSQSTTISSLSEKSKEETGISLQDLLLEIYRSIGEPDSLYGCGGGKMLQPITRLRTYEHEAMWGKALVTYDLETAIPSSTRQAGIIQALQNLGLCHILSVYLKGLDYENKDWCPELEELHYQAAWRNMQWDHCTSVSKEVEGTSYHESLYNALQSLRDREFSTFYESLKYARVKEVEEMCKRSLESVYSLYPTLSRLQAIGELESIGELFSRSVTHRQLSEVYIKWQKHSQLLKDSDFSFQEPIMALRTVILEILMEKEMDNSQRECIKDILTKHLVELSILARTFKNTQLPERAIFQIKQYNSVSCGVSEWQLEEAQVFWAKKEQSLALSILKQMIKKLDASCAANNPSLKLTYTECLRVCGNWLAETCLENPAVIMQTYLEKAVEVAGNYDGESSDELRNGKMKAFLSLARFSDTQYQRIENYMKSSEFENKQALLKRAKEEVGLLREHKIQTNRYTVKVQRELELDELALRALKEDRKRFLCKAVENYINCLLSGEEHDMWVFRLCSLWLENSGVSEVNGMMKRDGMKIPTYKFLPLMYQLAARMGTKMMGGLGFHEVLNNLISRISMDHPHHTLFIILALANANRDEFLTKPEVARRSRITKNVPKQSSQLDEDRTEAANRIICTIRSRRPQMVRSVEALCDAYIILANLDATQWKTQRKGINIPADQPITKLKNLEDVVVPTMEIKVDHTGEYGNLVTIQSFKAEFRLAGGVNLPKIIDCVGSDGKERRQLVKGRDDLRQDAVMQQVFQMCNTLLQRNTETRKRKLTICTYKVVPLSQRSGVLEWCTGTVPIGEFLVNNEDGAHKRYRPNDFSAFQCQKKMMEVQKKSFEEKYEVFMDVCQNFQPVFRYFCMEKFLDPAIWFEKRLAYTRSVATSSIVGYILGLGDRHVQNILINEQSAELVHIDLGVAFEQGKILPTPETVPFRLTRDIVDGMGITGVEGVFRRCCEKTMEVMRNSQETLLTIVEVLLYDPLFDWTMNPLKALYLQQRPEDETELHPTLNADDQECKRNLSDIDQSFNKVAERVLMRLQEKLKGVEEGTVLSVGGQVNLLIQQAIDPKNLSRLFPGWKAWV
row,Compound,IC50 [nM]
1,"O=c1cc(N2CCOCC2)cc(-c2cccc3c2Sc2ccc(N4CC4CN4CCOCC4)cc2S3)[nH]1 (centres unmarked) [Example 1-38, 4-morpholino-6-(7-(2-(morpholinomethyl)aziridin-1-yl)thianthren-1-yl)pyridin-2(1H)-one]",100 to 500

# Same assay, conditions: phosphorylated Chk2 in NCI-H460 cells, ionizing radiation 8Gy, 1 hour after test compound treatment; read-out: ATM inhibitory activity
row,Compound,IC50 [nM]
1,"COCC[C@H](CN1CCOCC1)Nc1ccc2c(c1)Sc1cccc(-c3cc(N4CCOCC4)cc(=O)[nH]3)c1S2 [Example 1-59-1, (R)-6-(7-((4-methoxy-1-morpholinobutan-2-yl)amino)thianthren-1-yl)-4-morpholinopyridin-2(1H)-one]",< 100
2,"O=c1cc(N2CCOCC2)cc(-c2cccc3c2Oc2ccc(NCc4ccoc4)cc2C3)[nH]1 [Example 2-14-34, 6-(7-((Furan-3-ylmethyl)amino)-9H-xanthen-4-yl)-4-morpholino pyridin-2(1H)-one]",100 to 500
3,"CCNCC(Nc1ccc2c(c1)Sc1cccc(-c3cc(N4CCOCC4)cc(=O)[nH]3)c1S2)c1cccc(C)n1 (centres unmarked) [Example 1-34-1, 6-(7-((2-(ethylamino)-1-(6-methylpyridin-2-yl)ethyl)amino)thianthren-1-yl)-4-morpholinopyridin-2(1H)-one]",100 to 500
4,"O=c1cc(N2CCOCC2)cc(-c2cccc3c2Oc2ccc(NCc4cncc(F)c4)cc2C3)[nH]1 [Example 2-2-10, 6-(7-(((5-Fluoropyridin-3-yl)methyl)amino)-9H-xanthen-4-yl)-4-morpholino pyridin-2 (1H)-one]",100 to 500
5,"O=c1cc(N2CCOCC2)cc(-c2cccc3c2Sc2ccc(NCCCCN4CCOCC4)cc2S3)[nH]1 [Example 1-9-4, 4-Morpholino-6-(7-((4-morpholinobutyl)amino)thianthren-1-yl)pyridin-2(1H)-one]",100 to 500
6,"Cc1csc(CNc2ccc3c(c2)Cc2cccc(-c4cc(N5CCOCC5)cc(=O)[nH]4)c2O3)c1 [Example 2-14-41, 6-(7-(((4-Methylthiophen-2-yl)methyl)amino)-9H-xanthen-4-yl)-4-morpholino pyridin-2(1H)-one]",100 to 500
7,"O=c1cc(N2CCOCC2)cc(-c2cccc3c2Oc2ccc(NC4CCN(Cc5ccoc5)CC4)cc2C3)[nH]1 [Example 2-28-28, 6-(7-((1-(Furan-3-ylmethyl)piperidin-4-yl)amino)-9H-xanthen-4-yl)-4-morpholino pyridin-2(1H)-one]",100 to 500
8,"CNCC(Nc1ccc2c(c1)Sc1cccc(-c3cc(N4CCOCC4)cc(=O)[nH]3)c1S2)c1cccc(C)n1 (single isomer, unassigned) [Example 1-19-4-1, 6-(7-((2-(Methylamino)-1-(6-methylpyridin-2-yl)ethyl)amino)thianthren-1-yl)-4-morpholinopyridin-2(1H)-one]",100 to 500
9,"CC(C)Nc1cncc(CNc2ccc3c(c2)Cc2cccc(-c4cc(N5CCOCC5)cc(=O)[nH]4)c2O3)c1 [Example 2-2-75, 6-(7-(((5-(Isopropylamino)pyridin-3-yl)methyl)amino)-9H-xanthen-4-yl)-4-morpholino pyridin-2(1H)-one]",100 to 500
10,"O=c1cc(N2CCOCC2)cc(-c2cccc3c2Oc2ccc(NCc4ccncc4Cl)cc2C3)[nH]1 [Example 2-2-25, 6-(7-(((3-Chloropyridin-4-yl)methyl)amino)-9H-xanthen-4-yl)-4-morpholino pyridin-2 (1H)-one]",100 to 500
11,"COc1cccnc1CNc1ccc2c(c1)Cc1ccnc(-c3cc(N4CCOCC4)cc(=O)[nH]3)c1O2 [Example 2-41-12, 6-(7-(((3-Methoxypyridin-2-yl)methyl)amino)-5H-chromeno [2,3-c]pyridin-1-yl)-4-morpholino pyridin-2(1H)-one]",500 to 2000
12,"O=c1cc(N2CCOCC2)cc(-c2nccc3c2Oc2ccc(NCc4cncc(C5CC5)c4)cc2C3)[nH]1 [Example 2-41-11, 6-(7-(((5-Cyclopropylpyridin-3-yl)methyl)amino)-5H-chromeno[2,3-c]pyridin-1-yl)-4-morpholino pyridin-2(1H)-one]",100 to 500
13,"CN(C)c1ccc(CN2CCC(Nc3ccc4c(c3)Cc3cccc(-c5cc(N6CCOCC6)cc(=O)[nH]5)c3O4)CC2)cn1 [Example 2-28-9, 6-(7-((1-((6-(Dimethylamino)pyridin-3-yl)methyl)piperidin-4-yl)amino)-9H-xanthen-4-yl)-4-morpholino pyridin-2(1H)-one]",100 to 500
14,"CC1CCCCN1CC(CO)Nc1ccc2c(c1)Sc1cccc(-c3cc(N4CCOCC4)cc(=O)[nH]3)c1S2 (single isomer, unassigned) [Example 1-37-7, 6-(7-((1-Hydroxy-3-(2-methylpiperidin-1-yl)propan-2-yl)amino)thianthren-1-yl)-4-morpholino pyridin-2(1H)-one]",500 to 2000
15,"O=c1cc(N2CCOCC2)cc(-c2cccc3c2Oc2ccc(NCc4cncc(-n5ccnc5)c4)cc2C3)[nH]1 [Example 2-2-56, 6-(7-(((5-(1H-Imidazol-1-yl)pyridin-3-yl)methyl)amino)-9H-xanthen-4-yl)-4-morpholino pyridin-2 (1H)-one]",100 to 500
16,"O=c1cc(N2CCOCC2)cc(-c2cccc3c2Sc2ccc(NC4CCCCC4N4CCOCC4)cc2S3)[nH]1 (centres unmarked) [Example 1-16-2, 4-Morpholino-6-(7-((2-morpholinocyclohexyl)amino)thianthren-1-yl)pyridin-2(1H)-one]",100 to 500

row,Compound,IC50 [nM]
1,"O=c1cc(N2CCOCC2)cc(-c2cccc3c2Sc2ccc(NC4CCCC4N4CCOCC4)cc2S3)[nH]1 (single isomer, unassigned) [Example 1-16-1-3, 4-morpholino-6-(7-((2-morpholinocyclopentyl)amino)thianthren-1-yl)pyridin-2(1H)-one]",100 to 500
2,"Cc1ccnc(C(CO)Nc2ccc3c(c2)Cc2cccc(-c4cc(N5CCOCC5)cc(=O)[nH]4)c2O3)c1 (single isomer, unassigned) [Example 2-14-91, 6-(7-((2-hydroxy-1-(4-methylpyridin-2-yl)ethyl)amino)-9H-xanthen-4-yl)-4-morpholinopyridin-2(1H)-one]",100 to 500
3,"Cc1cnc(C(CCN(C)C)Nc2ccc3c(c2)Sc2cccc(-c4cc(=O)cc(N5CCOCC5)o4)c2S3)cn1 (single isomer, unassigned) [Example 10-8, 2-(7-((3-(dimethylamino)-1-(5-methylpyrazin-2-yl)propyl)amino)thianthren-1-yl)-6-morpholino-4H-pyran-4-one]",< 100
4,"O=c1cc(N2CCOCC2)cc(-c2cccc3c2Cc2ccc(NCc4ccc(Cl)nc4)cc2O3)[nH]1 [Example 6, 6-(6-(((6-chloropyridin-3-yl)methyl)amino)-9H-xanthen-1-yl)-4-morpholinopyridin-2(1H)-one]",500 to 2000
5,"Nc1ccc2c(c1)Cc1cccc(-c3cc(N4CCOCC4)cc(=O)[nH]3)c1S2 [Example 3-1, 6-(7-amino-9H-thioxanthen-4-yl)-4-morpholinopyridin-2(1H)-one]",500 to 2000
6,"CCNc1cncc(CNc2ccc3c(c2)Cc2cccc(-c4cc(N5CCOCC5)cc(=O)[nH]4)c2O3)c1 [Example 2-6-1, 6-(7-(((5-(ethylamino)pyridin-3-yl)methyl)amino)-9H-xanthen-4-yl)-4-morpholinopyridin-2(1H)-one]",100 to 500
7,"Cc1ccc(C(Nc2ccc3c(c2)Sc2cccc(-c4cc(N5CCOCC5)cc(=O)[nH]4)c2S3)C2CN(CCO)CCO2)nc1 (racemic) [Example 1-57-2, 6-(7-(((4-(2-Hydroxyethyl)morpholin-2-yl)(5-methylpyridin-2-yl)methyl)amino)thianthren-1-yl)-4-morpholinopyridin-2(1H)-one]",< 100
8,"COc1cncc(CNc2ccc3c(c2)Cc2cccc(-c4cc(N5CCOCC5)cc(=O)[nH]4)c2O3)c1 [Example 2-3-8, 6-(7-(((5-Methoxypyridin-3-yl)methyl)amino)-9H-xanthen-4-yl)-4-morpholino pyridin-2(1H)-one]",100 to 500
9,"O=c1cc(N2CCOCC2)cc(-c2cccc3c2Oc2ccc(NCCN4CCOCC4)cc2S3)[nH]1 [Example 4-11, 4-Morpholino-6-(8-((2-morpholinoethyl)amino)phenoxathiin-4-yl)pyridin-2(1H)-one]",100 to 500
10,"Cc1ccc(C(Nc2ccc3c(c2)Sc2cccc(-c4cc(N5CCOCC5)cc(=O)[nH]4)c2S3)[C@H]2CN(C)CCO2)nc1 (single isomer, unassigned) [Example 1-56-12]",< 100
11,"CC(CN1CCN(C)CC1)Nc1ccc2c(c1)Sc1cccc(-c3cc(N4CCOCC4)cc(=O)[nH]3)c1S2 (single isomer, unassigned) [Example 1-13-3-3, 6-(7-((1-(4-methylpiperazin-1-yl)propan-2-yl)amino)thianthren-1-yl)-4-morpholinopyridin-2(1H)-one]",100 to 500
12,"CC(C)(C)OC(=O)N1CCC(Nc2ccc3c(c2)Cc2cccc(-c4cc(N5CCOCC5)cc(=O)[nH]4)c2O3)C(F)C1 (centres unmarked) [Example 2-14-1, tert-Butyl 3-fluoro-4-((5-(4-morpholino-6-oxo-1,6-dihydropyridin-2-yl)-9H-xanthen-2-yl)amino) piperidine-1-carboxylate]",100 to 500
13,"O=c1cc(N2CCOCC2)cc(-c2cccc3c2Oc2ccc(NC4CCN(Cc5ccccc5)CC4)cc2C3)[nH]1 [Example 2-28-24, 6-(7-((1-Benzylpiperidin-4-yl)amino)-9H-xanthen-4-yl)-4-morpholino pyridin-2 (1H)-one]",100 to 500
14,"O=C(Nc1ccc2c(c1)Cc1cccc(-c3cc(N4CCOCC4)cc(=O)[nH]3)c1O2)c1cc(Br)ccn1 [Example 2-24, 4-bromo-N-(5-(4-morpholino-6-oxo-1,6-dihydropyridin-2-yl)-9H-xanthen-2-yl)picolinamide]",500 to 2000
15,"COc1cncc(C(CO)Nc2ccc3c(c2)Sc2cccc(-c4cc(N5CCOCC5)cc(=O)[nH]4)c2S3)n1 (centres unmarked) [Example 1-12-79, 6-(7-((2-Hydroxy-1-(6-methoxypyrazin-2-yl)ethyl)amino)thianthren-1-yl)-4-morpholino pyridin-2(1H)-one]",100 to 500
